Source: patent US9914910B2, “Methods of preserving and protecting pancreatic beta cells and treating or preventing diabetes by inhibiting NOX-1” (Eastern Virginia Medical School, priority 2013, dated 2018)

Experiments:
[1] = test system: NOX-1 gene expression in βTC-3 cells; test: PIC-induced NOX-1 gene expression (RT-PCR); assay type: cell-based, mouse; settings: βTC-3, PIC 24 hours
Method: (§1) Total RNA was isolated using the RNeasy Mini Kit (Qiagen, Valencia, Calif.) and cDNA prepared using MMLV reverse transcriptase (Life Technologies) and random hexamers (Life Technologies). Jump Start Taq polymerase (Life Technologies) was used in PCR reactions. […] RT-PCR reactions were performed in triplicate (CFX96 Bio-Rad, Hercules, Calif.). Taqman primers (Life Technologies) were also used. Data was normalized to the housekeeping gene GAPDH and analyzed using the 2-ΔΔCT method.

[2] = test system: beta cells; test: Pro-caspase 3 cleavage after PIC, beta cell survival; assay type: cell-based; settings: C1 100 nM, ML171 10 μM
Method: Loss of beta cell viability in response to inflammatory cytokines was assessed by measurement of caspase 3 activation and quantified microscopy. […] Measured by pro-caspase 3 cleavage (A) or quantified microscopy of YO-PRO-1 stained cells (B). […] Shown are RFU from fluorescent capase3 substrate, ##p<0.01 relative to control; *p<0.05; **p<0.01 relative to PIC (A) and Microscopic apoptotic index ###p<0.001 relative to control; ***p<0.001; **p<0.01 relative to PIC (B).

[3] = test system: human colon cancer cells; settings: cited from earlier work
[4] = test system: primary mouse islets; test: Caspase-3 assay (pro-caspase-3 cleavage) after PIC; assay type: cell-based; settings: 4 hours, up to
Method: Human donor islets were obtained from integrated islet distribution project (http://iidp.coh.org) and cultured in CMRL media (Mediatech, Manassas, Va.). Mouse islets were freshly isolated from 8-week old male C57BL/6J mice (Jackson Laboratory, Bar Harbor, Me.) by common bile duct cannulation and collagenase digestion. Islets were hand picked prior to use.
A. Caspase-3 Assay: Pro-caspase-3 cleavage was measured using a caspase-3 Assay kit (BD Pharmigen, Franklin Lakes, N.J.) per the manufacturer's instructions; fluorescence being measured (SpectraMax, Molecular Devices, Sunnyvale, Calif.) at excitation 380 nm and emission 440 nm (INS-1) or 460 nm (βTC-3, mouse).

[5] = test system: NOX-1 gene expression in INS-1 cells; test: PIC-induced NOX-1 gene expression (RT-PCR); assay type: cell-based, rat; settings: INS-1, PIC 24 hours
Method: as §1

[6] = test system: INS-1 cells; test: ROS measurement (DCF-DA) after pro-inflammatory cytokine cocktail (PIC); assay type: cell-based, rat
Method: INS-1 cells were cultured in RPMI-1640 media (Life Technologies, Grand Island, N.Y.) supplemented with 10% fetal calf serum, 1% penicillin/streptomycin, 10 mM Hepes, 2 mM Lglutamine, 1 mM sodium pyruvate, and 0.05 mM 2-mercaptoethanol at 370 C with 5% CO2.
Cells treated for 1 hour were then washed with PBS prior to addition of 10 μM 6-Carboxy-2′,7′-Dichlorodihydrofluorescein Diacetate, Di(Acetoxymethyl ester) (DCF-DA, Life Technologies) for 30 min at 370 C. Post PBS wash cells were incubated at 370 C for 1 hour. Prior to fluorescence measurement (SpectraMax Molecular Devices, Sunnyvale, Calif.) at excitation 480 nm: emission 530 nm.
Elevation of cellular ROS in beta-cell lines INS-1 (rat beta-cell line) and βTC-3 (mouse beta-cell line) was evaluated by conversion of fluorescent substrate DCF-DA. Following one hour stimulation with a pro-inflammatory cytokine cocktail (PIC; IL-1β, TNF-α, and IFN-γ) detectable ROS elevated from control levels of 0.05±0.02 and 0.09±0.03 (INS-1 and βTC-3 respectively) to 0.25±0.04 and 0.23±0.03 (INS-1 and βTC-3 respectively). This increase was significant p<0.05 and p<0.01 (INS-1 and βTC-3 respectively).

[7] = test system: βTC-3 cells; test: Apoptosis by YO-PRO-1 fluorescence microscopy after PIC; assay type: cell-based, mouse; settings: βTC-3, PIC 24 hours, p<0.001
Method: B. Fluorescence microscopy: Stimulated cells or islets were washed in cold PBS, and incubated for 30 mins at 40 C with cold PBS containing 1 μg/mL propidium iodide and 0.1 μM YO-PRO-1 (Life Technologies). For cell lines, five randomly fields per well were analyzed. For islets, all islets (>1000 um2 in size) were analyzed. Densitometric fluorescent value for YO-PRO-1 (green channel) was normalized to background and expressed proportional to cell occupied area (phase contrast). Images captured across three channels with Axiophot (Zeiss, Jena, Germany) with Axiovision (Zeiss) image analysis.

**Q.** Which “inhibition of PIC-induced expression of NOX-1 gene” value [1] does the source give for `CC(=O)c1ccc2c(c1)Nc1ccccc1S2` [ML171, 2-acetylphenothiazine] here?
**A.** 23%

**Q.** And the “inflammatory cytokine-induced cell death, pro-caspase 3 cleavage” value [2]?
**A.** significantly protected

**Q.** What about the “NOX-1 activity in human colon cancer cells” value [3] of the same compound?
**A.** inhibits NOX-1 activity

**Q.** And the “block of PIC-induced activation of caspase-3” value ([4]; 1 μM)?
**A.** up to 100%±7%

**Q.** And the “block of PIC-induced activation of caspase-3” value ([4]; 10 μM)?
**A.** ≤ 100%±3%

**Q.** And the “inhibition of PIC-induced expression of NOX-1 gene” value [5]?
**A.** 33%

**Q.** What about the “inhibition of PIC-induced ROS (DCFDA conversion)” value ([6]; INS-1, PIC 1 hour) of the same compound?
**A.** dose dependent inhibition

**Q.** And the “concentration of maximal protection from PIC-induced ROS” value ([6]; analogous results for INS-1 and βTC-3)?
**A.** 10 µM

**Q.** What about the “PIC-induced apoptosis (YO-PRO-1)” value [7] of the same compound?
**A.** apoptosis was significantly decreased
